According to publication PMC11473416, “Coumarin-chalcone derivatives as dual NLRP1 and NLRP3 inflammasome inhibitors targeting oxidative stress and inflammation in neurotoxin-induced HMC3 and BE(2)-M17 cell models of Parkinson's disease” (Frontiers in Aging Neuroscience, 2024):

Columns and labels:
[1] = cytotoxicity MTT assay in HMC3 cells; type: cell-based, human; conditions: human, MTT, 1–100 μM, 24 h
Method: Human HMC3 microglial (CRL-3304) and neuroblastoma BE(2)-M17 (CRL-2267) cells were obtained from American Type Culture Collection. BE(2)-M17 develops a better dopaminergic phenotype than SH-SY5Y when treated with retinoic acid to direct neuronal differentiation (Carvajal-Oliveros et al., [2022]). Cells were routinely maintained in Dulbecco's Modified Eagle Medium-Nutrient Mixture F12 (DMEM-F12) supplemented with 10% fetal bovine serum (FBS; Thermo Fisher Scientific, Waltham, MA, USA) in a 37°C incubator, with 95% relative humidity and 5% CO2 (NuAire, Plymouth, MN, USA).
To evaluate cytotoxicity of LM compounds and MPP^+, HMC3 (1 × 10^4) or BE(2)-M17 (2 × 10^4) cells were plated on 96-well dishes, grown for 20 h, and treated with LM compounds (1–100 μM) or MPP^+ [HMC3: 0–8 mM; BE(2)-M17: 0–5 mM]. Next day, 20 μl of tetrazolium dye 3-(4,5-dimethylthiazol-2-yl)-2,5-diphenyltetrazolium bromide (MTT, 5 mg/ml; Sigma-Aldrich) was added to the cells at 37°C for 3 h. The resulted insoluble purple formazan products were dissolved by lysis buffer (composition: 10% Triton X-100, 0.1 N HCl, 18% isopropanol). The absorbance of the dissolved product at optical density (OD) 570 nm was read by using a FLx800 fluorescence microplate spectrophotometer (Bio-Tek, Winooski, VT, USA). The half maximal inhibitory concentration (IC50) of LM compounds was determined through the construction of a dose-response curve. MPP^+ at 4 mM (HMC3 cell viability: 65%−69%) or 0.62 mM [BE(2)-M17 cell viability: 79%−84%] was selected to induce inflammation for further experiments.

[2] = DPPH free radical scavenging activity; conditions: 10–160 μM, 30 min, room temperature
Method: Stable 1,1-diphenyl-2-picrylhydrazyl (DPPH) radical in ethanol (100 μM; Sigma-Aldrich) was used to measure the antioxidant activity of these LM compounds. After addition of quercetin (positive control) or LM compound (10–160 μM), the mixture was vortexed for 15 s and incubated at room temperature for 30 min. Subsequently, the mixture was measured spectrophotometrically at 517 nm (Multiskan GO microplate spectrophotometer; Thermo Fisher Scientific). The free radical scavenging activity was calculated as the percentage of DPPH discoloration using the formula 1 – (absorbance of sample/absorbance of control) × 100%, with half maximal effective concentration (EC50) calculated using the interpolation method.

p-CREB (Ser133) = experiment: Western blot p-CREB (Ser133) in MPP^+-treated BE(2)-M17 cells; type: cell-based, human; conditions: BE(2)-M17, compound 10 μM + 0.62 mM MPP^+; MPP^+ alone 83%; untreated = 100%
Method: (§1) HMC3 (2 × 10^5/6-well) or BE(2)-M17 (4 × 10^5/6-well) cells were lysed in buffer (composition: 50 mM Tris-HCl pH8.0, 2 mM EDTA pH8.0, 150 mM NaCl, 0.5% sodium deoxycholate, 0.1% SDS, 50 mM NaF, 1% NP40) containing the protease and/or phosphatase inhibitor cocktail (Sigma-Aldrich). After sonication, the lysates were centrifuged (12,000 × g for 10 min at 4°C) and protein concentrations determined (Bradford protein assay; Bio-Rad, Hercules, CA, USA). Aliquots of protein (20 μg) were separated by electrophoresis using 10%−12% SDS–polyacrylamide gel followed by transfer to a polyvinylidene fluoride (PVDF) membrane. […] The immune complexes were detected using horseradish peroxidase (HRP)-conjugated goat anti-mouse or goat anti-rabbit IgG antibody (1:5,000; GeneTex) and chemiluminescent HRP substrate (Millipore, Burlington, MA, USA). Immunoreactive bands were captured (ImageQuant™ LAS 4000, GE Healthcare, Chicago, IL, USA) and quantified (Multi Gauge V3.0 software, Fujifilm, Tokyo, Japan).

BDNF = experiment: Western blot BDNF in MPP^+-treated BE(2)-M17 cells; type: cell-based, human; conditions: BE(2)-M17, compound 10 μM + 0.62 mM MPP^+; MPP^+ alone 78%; untreated = 100%
Method: as §1

BCL2 = experiment: Western blot BCL2 in MPP^+-treated BE(2)-M17 cells; type: cell-based, human; conditions: BE(2)-M17, compound 10 μM + 0.62 mM MPP^+; MPP^+ alone 70%; untreated = 100%
Method: as §1

NQO1 = experiment: Western blot NQO1 in MPP^+-treated BE(2)-M17 cells; type: cell-based, human; conditions: BE(2)-M17, compound 10 μM + 0.62 mM MPP^+; MPP^+ alone 53%; untreated = 100%
Method: HMC3 (2 × 10^5/6-well) or BE(2)-M17 (4 × 10^5/6-well) cells were lysed in buffer (composition: 50 mM Tris-HCl pH8.0, 2 mM EDTA pH8.0, 150 mM NaCl, 0.5% sodium deoxycholate, 0.1% SDS, 50 mM NaF, 1% NP40) containing the protease and/or phosphatase inhibitor cocktail (Sigma-Aldrich). After sonication, the lysates were centrifuged (12,000 × g for 10 min at 4°C) and protein concentrations determined (Bradford protein assay; Bio-Rad, Hercules, CA, USA). […] The immune complexes were detected using horseradish peroxidase (HRP)-conjugated goat anti-mouse or goat anti-rabbit IgG antibody (1:5,000; GeneTex) and chemiluminescent HRP substrate (Millipore, Burlington, MA, USA). Immunoreactive bands were captured (ImageQuant™ LAS 4000, GE Healthcare, Chicago, IL, USA) and quantified (Multi Gauge V3.0 software, Fujifilm, Tokyo, Japan).

iNOS = experiment: Western blot iNOS in MPP^+-stimulated HMC3 cells; type: cell-based, human; conditions: HMC3, 4 mM MPP^+ alone; untreated = 100%
Method: as §1

TNF-α = experiment: Western blot TNF-α in MPP^+-stimulated HMC3 cells; type: cell-based, human; conditions: HMC3, 4 mM MPP^+ alone; untreated = 100%
Method: as §1

SMILES	IC50 [1]	EC50 [2]	p-CREB (Ser133) level (p-CREB (Ser133))	BDNF level (BDNF)	BCL2 level (BCL2)	NQO1 level (NQO1)	iNOS expression (iNOS)	TNF-α expression (TNF-α)	IC50 at 24 h ([1]; HMC3 microglial cells)
CN(C)c1ccc(/C=C/C(=O)c2c(O)c3ccccc3oc2=O)cc1 [LM-021, (E)-3-(3-(4-(dimethylamino)phenyl)acryloyl)-4-hydroxy-2H-chromen-2-one]	> 100 µM	65 µM	102–105%	109–110%	99–110%	–	–	–	–
O=C(/C=C/c1ccccc1O)c1c(O)c2ccccc2oc1=O [LM-036]	> 100 µM	–	102–105%	109–110%	99–110%	81–86%	–	–	–
C[n+]1ccc(-c2ccccc2)cc1 [MPP^+, 1-methyl-4-phenyl pyridinium, reference compound]	–	–	–	–	–	–	156%	223%	–
Cc1ccc(/C=C/C(=O)c2c(O)c3ccccc3oc2=O)cc1 [LM-016]	–	127 µM	–	–	–	81–86%	–	–	> 100 µM
